Laboratory results from US7429564B2, “Oral insulin therapy” (Emisphere Technologies, Inc., priority 2002, dated 2008).

Assays:
[1] = Delivery agent plasma concentrations in humans after oral delivery agent capsules; type: in vivo, human; settings: plasma; oral capsules, 750 mg, healthy human volunteers
Experimental: Delivery agents 1-3 were investigated for their ability to penetrate the GI mucosa. The plasma concentration of each delivery agent was measured in human subjects after oral administration of delivery agent loaded capsules as a measure of each delivery agent's penetration efficiency.
Blood sampling for plasma delivery agent concentration determination (2 mL in sodium heparin tube) were drawn 15 minutes before dosing, and at 5, 10, 15, 30, and 45 minutes and 1, 1.5, 2, 3, 4, 6, 8, and 12 hours post-dose (14 samples per treatment) for delivery agent measurements in all treatment groups.
Two 18-gauge IV lines were situated prior to dosing; one for blood sampling, and the other for potential infusion of 20% glucose for subjects in groups 2 and 3. The subjects in group 1 only had one cannula inserted. The blood samples were centrifuged at 3000 rpm for a period of fifteen minutes at a temperature from about 2° C. to 8° C., within one hour of sample collection. Using a plastic pipette and without disturbing the red cell layer, the plasma from the collection tube was pipetted in duplicate for each analysis, blood glucose, Human Insulin, C-peptide, delivery agent into pre-labeled polypropylene tubes. The samples were stored at −70° C. until analysis.
The indicated doses were ingested by healthy human volunteers and the plasma concentrations of the delivery agents were monitored over time and the area under the curve (AUC) calculated. […] Similarly, oral administration of 800 mg of delivery agent number 3 produced more than a 23 fold greater penetration of the GI mucosa in humans than did oral administration of 750 mg of delivery agent 2 having n equal to 9 alkyl.

[2] = Delivery agent plasma concentrations in monkeys after oral administration; type: in vivo; settings: monkey, plasma, oral, 300 mg
Experimental: Similar results were obtained when delivery agents 1-3 were administered orally to monkeys and the plasma concentrations of the delivery agents monitored over time and the AUC calculated.

[3] = system: serum glucose; assay: Effective clinical dose of delivery agent in humans (delivery efficiency); type: in vivo, human; settings: active agent heparin
Experimental: Next, delivery agents 1-3 were compared for the ability to efficiently transport an active agent across the GI mucosa in a biologically active form by determining the relationship between delivery agent dose, dose of active agent and the glucose response. The effective dose of delivery agent necessary to deliver a therapeutic dose of active agent and produce a therapeutic effect was measured. For delivery agent 3, the active agent was insulin, and the therapeutic effect was determined by the ability of the delivery agent/insulin combination to lower serum glucose by at least 10% within one hour post administration. For delivery agents 1 and 2, the active agent was heparin, and the therapeutic effect was determined by […]

[4] = system: blood glucose; assay: Example 7: postprandial blood glucose excursions after standardized breakfast, type 2 diabetic patients; type: in vivo, human
Experimental: A randomized, 3-period crossover, double-blind, double-dummy study was conducted in order to compare the effect (i.e., the postprandial pharmacokinetic and pharmacodynamic profiles) of an oral insulin formulation with that of s.c. administered short acting insulin on postprandial blood glucose excursions in Type 2 Diabetic subjects without any antidiabetic medication.
All patients received the same oral and SC injection treatments in a randomized sequence. […]
Blood samples for blood glucose determination (0.25 mL per sample) were taken at −1 min (baseline), 5 minutes after start of meal intake and thereafter in 5 minute intervals until 120 minutes, 10 minute intervals until 240 minutes, and 15 minute intervals until 360 minutes after start of meal intake (45 samples per session). Blood glucose concentrations were measured immediately after sample collection using an automated GOD method (Super GL Ambulance Glucose Analyzer, Ruhrtal Labortechnik, Delecke-Möhnesee, Germany). […]
For pharmacodynamic assessment, the following parameters were calculated: Maximal blood glucose excursion (BGmax), time to BGmax (tBGmax) Area under the blood glucose excursion curve in defined time-intervals (AUCBG 0-1h, AUCBG 0-2h, AUCBG 0-3h, AUCBG 0-4h, AUCBG 0-6h), maximal absolute blood glucose concentrations (BGabsmax), time to BGabsmax (tBGabsmax). […]

Compound: O=C(O)CCCCCCCNC(=O)c1ccccc1O [1 (SNAC), reference compound]
- AUC [1]: 3500 ng·h/mL
- AUC [2]: 45 ng·h/mL
- Effective clinical dose of delivery agent [3]: 2400 Mg

Compound: O=C(O)CCCCCCCCCNC(=O)c1ccccc1O [2 (SNAD), reference compound]
- AUC [1]: 2040 ng·h/mL
- AUC [2]: 82 ng·h/mL
- Effective clinical dose of delivery agent [3]: 1500 Mg

Compound: SC short-acting insulin: subcutaneous injected short acting insulin, Humalog injection 100 U/ml from Eli Lilly
- Mean fasting blood glucose at baseline (−1 minute) ([4]; 12 U SC, dosed 15 min before meal, mean (range)): 143.11 mg/dL
- Time to maximal glucose excursion (median) ([4]; SC 12 U, 15 min before meal): 1.3 h
